Test results as given in patent publication US20070275382A1, “Biomarkers for the Efficacy of Somatostatin Analogue Treatment” (priority 2003, published 2007).
Several values for one entry are separate records, joined by “and”; a condition that tells them apart may be missing. Equal entries are not always repeated. *1 amine or outer side, *2 acyl side, *3 side chain or, on linkers, in order; H or OH if unused. Where a SMILES comes first, the peptide text is derived from it. Side-chain parts run from the residue outwards. [ ]: non-standard residue; d: D form. The star is where a group is joined. Ethylenediamine = C(CN[*:2])N[*:1]; Hyp = O=C(O)[CH]1C[CH](O)CN1; Phg = N[CH](C(=O)O)c1ccccc1; CO = O=C([*:1])[*:2]; Bn = c1ccc(C*)cc1

Tested on: Pituitary gland
Experiment: Microarray gene expression profiling (HG-U95A), pituitary
Type: in vivo, cynomolgus monkeys
Method: Origin of tissue and processing. Male and female cynomolgus monkeys received subcutaneously pasireotide (100 μg/animal/day) or the vehicle for 14 days. On day 15, all animals were sacrificed and tissues for RNA extraction were immediately snap-frozen and kept at −80° C. until processing.
RNA expression profiling was conducted by means of the HG-U95A gene expression probe array (Affymetrix; Santa Clara, Calif. USA), containing more than 12,600 probe sets interrogating primarily full-length human genes and also some control probe sets. The experiment was conducted according to the recommendations of the manufacturer. Briefly, total RNA was obtained by acid guanidinium thiocyanate-phenol-chloroform extraction (Trizol®, Invitrogen Life Technologies, San Diego, Calif. USA) from each frozen tissue section. The total RNA was then purified on an affinity resin (Rneasy®, Qiagen) and quantified. Double stranded cDNA was synthesized with a starting amount of approximately 5 μg full-length total RNA using the Superscript® Choice System (Invitrogen Life Technologies, Carlsbad, Calif. USA) in the presence of a T7-(dT)24 DNA oligonucleotide primer. Following synthesis, the cDNA was purified by phenol/chloroform/isoamyl alcohol extraction and ethanol precipitation. The purified cDNA was then transcribed in vitro using the BioArray® High Yield RNA Transcript Labeling Kit (ENZO, Farmingdale, N.Y. USA) in the presence of biotinylated ribonucleotides form biotin labelled cRNA. The labelled cRNA was then purified on an affinity resin (Rneasy®, Qiagen), quantified and fragmented. An amount of approximately 10 μg labelled cRNA was hybridized for 16 hours at 45° C. to an expression probe array. The array was then washed and stained twice with streptavidin-phycoerythrin (Molecular Probes,) using the GeneChip® Fluidics Workstation 400 (Affymetrix, Santa Clara, Calif. USA). The array was then scanned twice using a confocal laser scanner (GeneArray® Scanner, Agilent, Palo Alto, Calif. USA) resulting in one scanned image. This resulting “.dat-file” was processed using the MAS4 program (Affymetrix) into a “.cel-file”. The “.cel file” was captured and loaded into the Affymetrix GeneChip® Laboratory Information Management System (LIMS). The LIMS database is connected to a UNIX Sun Solaris server through a network filing system that allows for the average intensities for all probes cells (CEL file) to be downloaded into an Oracle database (NPGN). Raw data was converted to expression levels using a “target intensity” of 150. The data were evaluated for quality control and loaded in the GeneSpring® software 4.2.4 (Silicon Genetics, Calif. USA) for analysis.
On the human Affymetrix HGU95Av2 chip, probe sets for individual genes contain 20 oligonucleotide pairs, each composed of a “perfect match” 25-mer and a “mismatch” 25-mer differing from the “perfect” match oligonucleotide at a single base. After probe labelling, hybridization, and laser scanning, the expression level was estimated by averaging the differences in signal intensity measured by oligonucleotide pairs of a given probe (AvgDiff value). The fold changes and directions were calculated for selected genes, from the differences of the AvgDiff values between controls and treated.
To identify genes that were impacted by pasireotide, the dataset was initially filtered to exclude in a first wave of analysis, genes whose values were systematically in the lower expression ranges where the experimental noise is high (at least 80 in a number of experiments corresponding to the smallest number of replicas of any experimental point). In a second round of selection a threshold p-value of 0.05 (based on a t-test) identified differences between treated and control based on a two component error model (Global Error Model) and, whenever possible, with a stepdown correction for multi-hypothesis testing (Benjamini and Hochberg false discovery rate). […]

[1] = ↑ vs control, 100 μg/animal/day s.c., 14 days

Compound: NCCCCC1NC(=O)C(Cc2c[nH]c3ccccc23)NC(=O)C(c2ccccc2)NC(=O)C2CC(OC(=O)NCCN)CN2C(=O)C(Cc2ccccc2)NC(=O)C(Cc2ccc(OCc3ccccc3)cc2)NC1=O (stereo not drawn) [Pasireotide, cyclo[4-(NH2—C2H4—NH—CO—O)Pro-Phg-DTrp-Lys-Tyr(4-Bzl)-Phe]] (cyclo(F[Hyp]([CO-Ethylenediamine])[Phg]WKY(Bn)); configuration not given here)
- ATPase, H+/K+ exchanging, α polypeptide expression level, AvgDiff (range) (0.1 mg/animal/14 day): 20
- ATPase, Na+/K+ transporting, α 2 (+) polypeptide expression level, AvgDiff (range) (0.1 mg/animal/14 day): 184 (69 to 325)
- ATPase, Na+/K+ transporting, β 3 polypeptide expression level, AvgDiff (range) (0.1 mg/animal/14 day): 610 (335 to 949)
- BCL2-antagonist of cell death expression level, AvgDiff (range) (0.1 mg/animal/14 day): 69 (42 to 89)
- BCL2-associated athanogene expression level, AvgDiff (range) (0.1 mg/animal/14 day): 318 (235 to 409)
- Bax gamma expression level, AvgDiff (range) (0.1 mg/animal/14 day): 326 (221 to 448)
- Cdk inhibitor 2C (p18, inhibits CDK4) expression level, AvgDiff (range) (0.1 mg/animal/14 day): 184 (140 to 229)
- Cdk inhibitor 2D (p19, inhibits CDK4) expression level, AvgDiff (range) (0.1 mg/animal/14 day): 99 (83 to 118)
- Cell division cycle 25B expression level, AvgDiff (range) (0.1 mg/animal/14 day): 162 (134 to 187)
- Core-binding factor, runt domain, α subunit 2; translocated to, 1; cyclin D-related expression level, AvgDiff (range) (0.1 mg/animal/14 day): 491 (251 to 677)
- Cyclin D3 expression level, AvgDiff (range) (0.1 mg/animal/14 day): 338 (202 to 446)
- Cyclin F expression level, AvgDiff (range) (0.1 mg/animal/14 day): 74 (48 to 132)
- Dual specificity phosphatase 8 expression level, AvgDiff (range) (0.1 mg/animal/14 day): 170 (67 to 238)
- Forkhead box O3A expression level, AvgDiff (range) (0.1 mg/animal/14 day): 257 (186 to 324)
- GLUR 2, precursor expression level, AvgDiff (range) (0.1 mg/animal/14 day): 59 (20 to 177)
- GR expression level, AvgDiff (range) (0.1 mg/animal/14 day): 109 (51 to 215)
- IGF-2 expression level, AvgDiff (range) (0.1 mg/animal/14 day): 70 (20 to 150)
- IGFBP, acid labile subunit expression level, AvgDiff (range) (0.1 mg/animal/14 day): 83 (20 to 110)
- IP-4-phosphatase, type 1, isoform b expression level, AvgDiff (range) (0.1 mg/animal/14 day): 177 (107 to 232)
- K+ channel, subfamily K, member 3 (TASK) expression level, AvgDiff (range) (0.1 mg/animal/14 day): 26 (20 to 43)
- K+ voltage-gated channel, Shab-related subfamily, member 1 expression level, AvgDiff (range) (0.1 mg/animal/14 day): 22 (20 to 31)
- MAPKKK5 expression level, AvgDiff (range) (0.1 mg/animal/14 day): 278 (221 to 351)
- Neuroblastoma-amplified protein expression level, AvgDiff (range) (0.1 mg/animal/14 day): 237 (201 to 258)
- PI transfer protein, β expression level, AvgDiff (range) (0.1 mg/animal/14 day): 42 (34 to 50)
- PI-3-kinase, catalytic, α polypeptide expression level, AvgDiff (range) (0.1 mg/animal/14 day): 21 (20 to 24)
- PI-3-kinase, catalytic, δ polypeptide expression level, AvgDiff (range) (0.1 mg/animal/14 day): 34 (20 to 67)
- PKC inhibitor expression level, AvgDiff (range) (0.1 mg/animal/14 day): 3,333 (2,339 to 3,878) and 3,332 (2,339 to 3,878)
- PLC, γ 1 (formerly subtype 148) expression level, AvgDiff (range) (0.1 mg/animal/14 day): 40 (20 to 63)
- PP 1, regulatory (inhibitor) subunit 5 expression level, AvgDiff (range) (0.1 mg/animal/14 day): 75 (60 to 90)
- PTP, receptor type, T expression level, AvgDiff (range) (0.1 mg/animal/14 day): 101 (48 to 129)
- Phosphatase and tensin homolog (mutated in multiple advanced cancers 1) expression level, AvgDiff (range) (0.1 mg/animal/14 day): 36 (20 to 63)
- Programmed cell death 6 expression level, AvgDiff (range) (0.1 mg/animal/14 day): 635 (513 to 747)
- Putative Ca++ transporting ATPase expression level, AvgDiff (range) (0.1 mg/animal/14 day): 101 (84 to 112)
- RAB 5C, member RAS oncogene family expression level, AvgDiff (range) (0.1 mg/animal/14 day): 162 (109 to 212)
- Rab geranylgeranyltransferase, α subunit expression level, AvgDiff (range) (0.1 mg/animal/14 day): 104 (70 to 172)
- Rab geranylgeranyltransferase, βsubunit expression level, AvgDiff (range) (0.1 mg/animal/14 day): 284 (246 to 374)
- S-phase response (cyclin-related) expression level, AvgDiff (range) (0.1 mg/animal/14 day): 129 (111 to 148)
- SHB adaptor protein (a Src homology 2 protein) expression level, AvgDiff (range) (0.1 mg/animal/14 day): 38 (20 to 55)
- SSTR3 expression level, AvgDiff (range) (0.1 mg/animal/14 day): 57 (20 to 90)
- ANP (atrial natriuretic peptide precursor B) transcript fold change [1]: ↑ x2
- ATP(GTP)-binding protein transcript fold change [1]: protein ↑ x1.5
- ATPase, Ca++ transporting cardiac muscle, slow twitch 2 transcript fold change [1]: ↑ x1.5
- ATPase, Na+/K+ transporting, α 2(+) polypeptide transcript fold change [1]: polypeptide ↑ x2.5
- ATPase, Na+/K+ transporting, β 3 polypeptide transcript fold change [1]: polypeptide ↑ x2.5
- Adrenomedullin transcript fold change [1]: Adrenomedullin ↑ x2.5
- BCL2-antagonist of cell death transcript fold change [1]: cell death ↑ x2
- BCL2-associated athanogene transcript fold change [1]: athanogene ↑ x2
- BCL2/adenovirus E1B 19 kD-interacting protein 3 transcript fold change [1]: 3 ↑ x1.5
- Bax γ transcript fold change [1]: Bax γ ↑ x1.5
- Brain cannabinoid receptor 1 transcript fold change [1]: receptor 1 ↑ x2
- Butyrate response factor 2 (EGF-response factor 2) transcript fold change [1]: factor 2) ↑ x3
- CC chemokines STCP-1 transcript fold change [1]: STCP-1 ↑ x1.5
- Calcium/calmodulin-dependent protein kinase I transcript fold change [1]: kinase I ↑ x2.5
- Cdki2C (p18, inhibits CDK4) transcript fold change [1]: CDK4) ↑ x2
- Cdki2D (p19, inhibits CDK4) transcript fold change [1]: CDK4) ↑ x1.5
- Cell division cycle 25B transcript fold change [1]: ↑ x5
- Core-binding factor, runt domain, α subunit 2; translocated to, 1; cyclin D-related transcript fold change [1]: cyclin D-related ↑ x3
- Cyclin D3 transcript fold change [1]: Cyclin D3 ↑ x2.5
- Forkhead box H1 transcript fold change [1]: Forkhead box H1↑ x2
- G protein-coupled receptor, family C, group 5, member B transcript fold change [1]: group 5, member B ↑ x2
- G-protein coupled receptor 9 transcript fold change [1]: receptor 9 ↑ x2.5
- GABA-B R 1, isoform a precursor transcript fold change [1]: ↑ x1.5
